Activity calls are given as the source filed them. The rule behind the calls is not given here.
Test system: rodent carcinogenicity bioassays, tumor incidence
Assay: CCRIS carcinogenicity studies
Settings: Dose: 0, Dose: 0
Procedure, shortened: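 Archive of carcinogenicity, mutagenicity, tumor promotion and tumor inhibition results drawn from journals, NCI reports and other sources, expert-reviewed; covers 1985-2011 and is no longer updated.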

`CN(CCCC(=O)c1cccnc1)N=O` was tested, and the carcinogen call (Species: HAMSTER, Strain/Sex: SYRIAN/FEMALE, Route: INTRATRACHEAL, 0.05, 5, 50 MG/KG ONCE ADMINISTERED TO MOTHERS ON DAY 15 OF GESTATION (STUDY DURATION: 59 WK), 0.05, 5, 50 MG/KG ONCE ADMINISTERED TO MOTHERS ON DAY 15 OF GESTATION (STUDY DURATION: 59 WK), Tumor Site: Type of Lesion: NASAL CAVITY: ADENOCARCINOMA, ADRENAL GLAND: TUMOR, PANCREAS: ADENOMA, Tumor Site: Type of Lesion: NASAL CAVITY: ADENOCARCINOMA, ADRENAL GLAND: TUMOR, PANCREAS: ADENOMA) was “active; positive”, the carcinogen call (Species: HAMSTER, Strain/Sex: SYRIAN/FEMALE, Route: SUBCUTANEOUS, 1, 5, 10, 20 MG/KG ONCE ADMINISTERED TO MOTHERS ON DAY 15 OF GESTATION (STUDY DURATION: 59 WK), 1, 5, 10, 20 MG/KG ONCE ADMINISTERED TO MOTHERS ON DAY 15 OF GESTATION (STUDY DURATION: 59 WK), Tumor Site: Type of Lesion: NASAL CAVITY: ADENOCARCINOMA, ADRENAL GLAND: TUMOR) was “active; positive” and the carcinogen call (Species: HAMSTER, Strain/Sex: SYRIAN/FEMALE, Route: TRANSPLACENTAL, 50 MG/KG IN DISTILLED WATER ADMINISTERED INTRATRACHEALLY TO MOTHERS ON DAY 15 OF GESTATION (STUDY DURATION: 48 WK), Tumor Site: Type of Lesion: ADRENAL GLAND: TUMOR, COLON: TUMOR, LYMPHOID TISSUE: LYMPHOMA, Tumor Site: Type of Lesion: ADRENAL GLAND: TUMOR, COLON: TUMOR, LYMPHOID TISSUE: LYMPHOMA) was “active; positive”. The carcinogen call (Species: HAMSTER, Strain/Sex: SYRIAN/MALE, Route: INTRATRACHEAL, 0.05, 5, 50 MG/KG ONCE ADMINISTERED TO MOTHERS ON DAY 15 OF GESTATION (STUDY DURATION: 59 WK), 0.05, 5, 50 MG/KG ONCE ADMINISTERED TO MOTHERS ON DAY 15 OF GESTATION (STUDY DURATION: 59 WK), Tumor Site: Type of Lesion: NASAL CAVITY: ADENOCARCINOMA, ADRENAL GLAND: TUMOR) was “active; positive”, the carcinogen call (Species: HAMSTER, Strain/Sex: SYRIAN/MALE, Route: SUBCUTANEOUS, 1, 5, 10, 20 MG/KG ONCE ADMINISTERED TO MOTHERS ON DAY 15 OF GESTATION (STUDY DURATION: 59 WK), 1, 5, 10, 20 MG/KG ONCE ADMINISTERED TO MOTHERS ON DAY 15 OF GESTATION (STUDY DURATION: 59 WK), Tumor Site: Type of Lesion: NASAL CAVITY: ADENOCARCINOMA, ADRENAL GLAND: TUMOR) was “active; positive” and the carcinogen call (Species: HAMSTER, Strain/Sex: SYRIAN/MALE, Route: TRANSPLACENTAL, 50 MG/KG IN DISTILLED WATER ADMINISTERED INTRATRACHEALLY TO MOTHERS ON DAY 15 OF GESTATION (STUDY DURATION: 48 WK), Tumor Site: Type of Lesion: NASAL CAVITY: TUMOR) was “active; positive”. The carcinogen call (Species: MOUSE, Strain/Sex: C3B6F1/FEMALE, Route: TRANSPLACENTAL, 100 MG/KG (0.5 MMOL) IN 0.9% STERILE SALINE ADMINISTERED INTRAPERITONEALLY ON DAYS 14, 16 AND 18 OF GESTATION (STUDY) was “inactive; negative”, the carcinogen call (Species: MOUSE, Strain/Sex: C3B6F1/MALE, Route: TRANSPLACENTAL, 100 MG/KG (0.5 MMOL) IN 0.9% STERILE SALINE ADMINISTERED INTRAPERITONEALLY ON DAYS 14, 16 AND 18 OF GESTATION (STUDY, Tumor Site: Type of Lesion: LIVER: HEPATOCELLULAR ADENOMA OR CARCINOMA) was “active; positive” and the carcinogen call (Species: MOUSE, Strain/Sex: C3H/HE/FEMALE, Route: INTRAPERITONEAL, 100 MG/KG (0.5 MMOL) IN 0.9% STERILE SALINE ONCE ON DAYS 14, 16 AND 18 OF PREGNANCY (STUDY DURATION: 24 WK), Tumor Site: Type of Lesion: LUNG: TUMOR) was “active; positive”. The carcinogen call (Species: MOUSE, Strain/Sex: STRAIN-A/FEMALE, Route: GAVAGE, 1, 2, 3 UMOL IN 0.1 ML COTTONSEED OIL 1/WK FOR 8 WK (STUDY DURATION: 26 WK), 1, 2, 3 UMOL IN 0.1 ML COTTONSEED OIL 1/WK FOR 8 WK (STUDY DURATION: 26 WK), Tumor Site: Type of Lesion: LUNG: ADENOMA) was “active; positive”, the carcinogen call (Species: MOUSE, Strain/Sex: STRAIN-A/FEMALE, Route: INTRAPERITONEAL, 1, 2, 3 UMOL IN 0.1 ML COTTONSEED OIL 1/WK FOR 8 WK (STUDY DURATION: 26 WK), 1, 2, 3 UMOL IN 0.1 ML COTTONSEED OIL 1/WK FOR 8 WK (STUDY DURATION: 26 WK), Tumor Site: Type of Lesion: LUNG: ADENOMA) was “active; positive” and the carcinogen call (Species: MOUSE, Strain/Sex: STRAIN-A/FEMALE, Route: INTRAPERITONEAL, 5, 20 UMOL TOTAL DOSE ADMINISTERED IN SUBDOSES 3/WK FOR 7 WK (STUDY DURATION: 37 WK), 5, 20 UMOL TOTAL DOSE ADMINISTERED IN SUBDOSES 3/WK FOR 7 WK (STUDY DURATION: 37 WK), Tumor Site: Type of Lesion: LUNG: TUMOR) was “active; positive”. For the same compound, the carcinogen call (Species: MOUSE, Strain/Sex: STRAIN-A/FEMALE, Route: INTRAPERITONEAL, 20 UMOL MOUSE (TOTAL DOSE) ADMINISTERED IN 0.1 ML SALINE 3/WK (TOTAL 20 INJECTIONS) (STUDY DURATION: 37 WK), Tumor Site: Type of Lesion: LUNG: ADENOCARCINOMA, ADENOMA) was “active; positive”, the carcinogen call (Species: MOUSE, Strain/Sex: STRAIN-A/FEMALE, Route: TRANSPLACENTAL, 100 MG/KG (0.5 MMOL) IN 0.9% STERILE SALINE ADMINISTERED INTRAPERITONEALLY ON DAYS 14, 16 AND 18 OF GESTATION (STUDY, Tumor Site: Type of Lesion: LUNG: TUMOR) was “active; positive” and the carcinogen call (Species: MOUSE, Strain/Sex: STRAIN-A/MALE, Route: TRANSPLACENTAL, 100 MG/KG (0.5 MMOL) IN 0.9% STERILE SALINE ADMINISTERED INTRAPERITONEALLY ON DAYS 14, 16 AND 18 OF GESTATION (STUDY) was “inactive; negative”. For the same compound, the carcinogen call (Species: MOUSE, Strain/Sex: SWISS/FEMALE, Route: INTRAPERITONEAL, 50 MG/KG IN STERILE SALINE ADMINISTERED ON POSTNATAL D 1, 3, 5, 7 AND 10 (STUDY DURATION: 15 MO), Tumor Site: Type of Lesion: LIVER: HEPATOCELLULAR ADENOMA OR CARCINOMA, LUNG: TUMOR) was “active; positive”, the carcinogen call (Species: MOUSE, Strain/Sex: SWISS/FEMALE, Route: TRANSPLACENTAL, 100 MG/KG (0.5 MMOL) IN 0.9% STERILE SALINE ADMINISTERED INTRAPERITONEALLY ON DAYS 15, 17 AND 19 OF GESTATION (STUDY) was “inactive; negative” and the carcinogen call (Species: MOUSE, Strain/Sex: SWISS/MALE, Route: INTRAPERITONEAL, 50 MG/KG IN STERILE SALINE ADMINISTERED ON POSTNATAL D 1, 3, 5, 7 AND 10 (STUDY DURATION: 15 MO), Tumor Site: Type of Lesion: LIVER: HEPATOCELLULAR ADENOMA OR CARCINOMA, LUNG: TUMOR) was “active; positive”. The carcinogen call (Species: MOUSE, Strain/Sex: SWISS/MALE, Route: TRANSPLACENTAL, 100 MG/KG (0.5 MMOL) IN 0.9% STERILE SALINE ADMINISTERED INTRAPERITONEALLY ON DAYS 15, 17 AND 19 OF GESTATION (STUDY) was “inactive; negative”, the carcinogen call (Species: RAT, Strain/Sex: F344/FEMALE, Route: GAVAGE, 11 MG/WK FOR A TOTAL DOSE OF 1.3 MMOL (STUDY DYRATION: 50 WK), Tumor Site: Type of Lesion: LIVER: TUMOR, LUNG: TUMOR, NASAL MUCOSA: TUMOR, Tumor Site: Type of Lesion: LIVER: TUMOR, LUNG: TUMOR, NASAL MUCOSA: TUMOR) was “active; positive” and the carcinogen call (Species: RAT, Strain/Sex: F344/FEMALE, Route: INTRAVESICULAR, 5.5 MG IN 0.2 ML ETHANOL: DEIONIZED WATER (1:3) 2/WK FOR 30 WK (TOTAL DOSE 1.5 MMOL) (STUDY DURATION: LIFESPAN), Tumor Site: Type of Lesion: LUNG: TUMOR, LIVER: TUMOR) was “active; positive”. For the same compound, the carcinogen call (Species: RAT, Strain/Sex: F344/FEMALE, Route: SUBCUTANEOUS, 1, 3, 9 MMOL/KG BW (TOTAL DOSE) WITH SUBDOSES GIVEN 3/WK FOR 20 WK WITH A 2 WK INTERRUPTION AFTER 7 WK (STUDY DURATIO, 1, 3, 9 MMOL/KG BW (TOTAL DOSE) WITH SUBDOSES GIVEN 3/WK FOR 20 WK WITH A 2 WK INTERRUPTION AFTER 7 WK (STUDY DURATIO, Tumor Site: Type of Lesion: NASAL CAVITY: TUMORS, LUNG: TUMORS, LIVER: TUMORS, Tumor Site: Type of Lesion: NASAL CAVITY: TUMORS, LUNG: TUMORS, LIVER: TUMORS) was “active; positive”, the carcinogen call (Species: RAT, Strain/Sex: F344/MALE, Route: MUCOUS MEMBRANE, 0.3 ML OF A 15 MMOL WATER SOLUTION 1/D 3 D/WK FOR 1 WK THEN 1/D 5 D/WK FOR WK 2-4 THEN 2/D 5 D/WK FOR WK 5-61 (STUDY, Tumor Site: Type of Lesion: LUNG: ADENOSQUAMOUS CARCINOMA, ADENOCARCINOMA, ADENOMA, NASAL CAVITY: CARCINOMA, PAPILLOMA, ADENOMA, ORAL CAVITY: PAPILL, Tumor Site: Type of Lesion: LUNG: ADENOSQUAMOUS CARCINOMA, ADENOCARCINOMA, ADENOMA, NASAL CAVITY: CARCINOMA, PAPILLOMA, ADENOMA, ORAL CAVITY: PAPILL) was “active; positive” and the carcinogen call (Species: RAT, Strain/Sex: F344/MALE, Route: ORAL, 0.5, 1, 5 PPM IN DRINKING WATER FOR DURATION OF STUDY (TOTAL DOSE: 0; 0.073; 0.17; 0.68 MMOL/KG) (STUDY DURATION: 128, 0.5, 1, 5 PPM IN DRINKING WATER FOR DURATION OF STUDY (TOTAL DOSE: 0; 0.073; 0.17; 0.68 MMOL/KG) (STUDY DURATION: 128, Tumor Site: Type of Lesion: NASAL CAVITY: TUMOR, LIVER: ADENOMA, HEPATOMA, LUNG: ADENOMA, ADENOCARCINOMA, ADENOSQUAMOUS CARCINOMA, SQUAMOUS CELL CAR, Tumor Site: Type of Lesion: NASAL CAVITY: TUMOR, LIVER: ADENOMA, HEPATOMA, LUNG: ADENOMA, ADENOCARCINOMA, ADENOSQUAMOUS CARCINOMA, SQUAMOUS CELL CAR) was “active; positive”. The carcinogen call (Species: RAT, Strain/Sex: F344/MALE, Route: SUBCUTANEOUS, 1, 3, 9 MMOL/KG BW (TOTAL DOSE) WITH SUBDOSES GIVEN 3/WK FOR 20 WK WITH A 2 WK INTERRUPTION AFTER 7 WK (STUDY DURATIO, 1, 3, 9 MMOL/KG BW (TOTAL DOSE) WITH SUBDOSES GIVEN 3/WK FOR 20 WK WITH A 2 WK INTERRUPTION AFTER 7 WK (STUDY DURATIO, Tumor Site: Type of Lesion: NASAL CAVITY: TUMORS, LUNG: TUMORS, LIVER: TUMORS, Tumor Site: Type of Lesion: NASAL CAVITY: TUMORS, LUNG: TUMORS, LIVER: TUMORS) was “active; positive”.

— PubChem BioAssay AID1259411 (Chemical Carcinogenesis Research Information System (CCRIS), 2018)
